Laboratory results taken from paper PMC9184620, “TAS1553, a small molecule subunit interaction inhibitor of ribonucleotide reductase, exhibits antitumor activity by causing DNA replication stress” (Communications Biology, 2022).

Key:
[1] = system: 68 proteins (ion channels, transporters, nuclear receptors, G protein-coupled receptors); assay: Eurofins LeadProfilingScreen panel assay; assay type: binding; conditions: 10 μmol/L; significant defined as >50% inhibition for each target protein
Experimental: The binding affinity of TAS1553 to the R1 subunit was investigated using surface plasmon resonance (SPR) binding analysis. […] Next, we evaluated the inhibitory effect of TAS1553 against the enzymatic activity of RNR, consisting of R1 and R2 recombinant proteins. RNR activity was determined by its ability to reduce cytidine diphosphate (CDP) to deoxycytidine diphosphate (dCDP), based on a previous report. […] In addition to the inhibitory effect on RNR, TAS1553 was evaluated in a Eurofins LeadProfilingScreen panel assay including 68 proteins, such as ion channels, transporters, nuclear receptors, and G protein-coupled receptors, to examine its potential adverse activity.

[2] = system: intracellular dNTP pools in HCC38 and MV-4-11 cells; assay: Measurement of intracellular dNTP/ATP pools by LC-MS/MS; assay type: cell-based, human
Experimental: Next, we examined the RNR inhibitory effect of TAS1553 in cells by measuring dNDP pools which are direct products of RNR. However, all dNDP pools could not be detected using LC-MS/MS due to detection limit. Then we determined whether TAS1553 affected the intracellular dNTP pools as surrogate marker for RNR inhibition in cells. LC-MS/MS could not measure dGTP pool due to masking dGTP peak by ATP, as previously reported; thus, dATP, dCTP and dTTP pools were analyzed. HCC38 and MV-4-11, an acute myelogenous leukemia (AML) cell line, were exposed to TAS1553, and the peak area of each dNTP was determined using cell extracts.
Next, we evaluated both concentration-dependent and time-dependent effects of TAS1553 on the dATP pool in HCC38 and MV-4-11 cell lines using absolute quantification. After 2 h of TAS1553 exposure, there was a concentration-dependent reduction of intracellular dATP pool in both cell lines (Fig. 2c). Furthermore, the intracellular dATP pool was reduced within 30 minutes when treated with TAS1553 at 1 or 10 µmol/L in both cell lines (Fig. 2d), consistent with its inhibitory effect on the protein-protein interaction (Fig. 2a).
Cells were plated, cultured for 1 day, treated with the compound, and harvested. The collected cells were homogenized with 0.42 mol/L perchloric acid, including IS-dATP at 0.6 μmol/L and IS-ATP at 2.4 μmol/L as internal standards for dATP and ATP, respectively. At each time point, xenograft tumors were excised after single dosing of the test compound. The tissues were homogenized with 0.42 mol/L perchloric acid, including IS-dATP at 3 μmol/L as an internal standard for dATP and ATP. Subsequently, a dichloromethane solution containing 0.5 N tri-n-octylamine was added to the perchloric acid-soluble fraction obtained by centrifugation. The aqueous layer collected after vortex and centrifugation was analyzed by LC-MS/MS. LC-MS/MS analysis was performed with a prominence HPLC system connected to a LCMS-8040 tandem mass spectrometer with ESI probe (SHIMADZU CORPORATION). […]

Which “inhibition in 68-protein panel” value [1] does the source give for `Cc1ccc(F)c([C@@H](C)[C@H](NS(=O)(=O)c2ccc(Cl)cc2C(N)=O)c2n[nH]c(=O)o2)c1C` [TAS1553, 5-chloro-2-{N-[(1S,2R)-2-(6-fluoro-2,3-dimethylphenyl)-1-(5-oxo-4,5-dihydro-1,3,4-oxadiazol-2-yl)propyl]sulfamoyl}benzamide] here?
Its value is “no significant inhibition”.

What about the “effect on intracellular dATP area” value ([2]; HCC38 and MV-4-11, 2 h) of the same compound?
Its value is “dramatically reduced”.

What about the “effect on intracellular dCTP and dTTP areas” value ([2]; HCC38 and MV-4-11, 2 h) of the same compound?
The value was “increased”.

And the “effect on intracellular ATP pool” value ([2]; until 2 h, 10 µmol/L)?
The value was “did not affect the intracellular ATP pool remarkably”.
